Read-outs that look alike come from different tables or passages of the source.
What was measured:
[1] = tested on: Type I calli derived from mature seeds of zoysiagrass; conditions: for Calli with green shoot (%) / Number of shoots per callus lump / Shoots over 2 mm (%): Type I calli, 2 weeks
Protocol: To examine the effects of various sugars on the plant regeneration efficiency from calli, the type I calli were dissected into lumps with a diameter of 2 mm and grown on the MS media containing 1 mg/L TDZ and 3% (w/v) fructose, galactose, glucose, maltose, or sucrose. For each treatment, 3 MS plates, each with 25 calli, were used. […] To determine the optimal concentration of maltose, the type I calli were grown on the MS media supplemented with various concentrations of maltose at 1.5, 3.0, 4.5, 6.0, 7.5, or 9%.
The effects of different sugars on the plant regeneration efficiency from calli were examined using the shoot induction media (SIM) supplemented with different sugars.
Type I calli were cultured on the MS medium containing 1 mg/L TDZ for 2 weeks. Each value in the second column represents a mean calculated from 25 calli per each experiment. Each value in the third column represents a mean calculated from 10 calli for each experiment.
Type I calli were cultured on the MS medium containing 1 mg/L TDZ and various concentrations of maltose for 2 weeks.

[2] = tested on: mature seeds of zoysiagrass; test: Callus induction from mature seeds on MS media with growth hormone combinations; assay type: cell-based, Zoysia japonica Steud.; conditions: for Callus producing seeds (%) / Number of callus producing seeds: MS, 3 months
Protocol: Seeds of zoysiagrass (Zoysia japonica Steud.), from which seed coats were first removed, were sterilized by soaking in 70% ethyl alcohol for 1 min and subsequently in 5% sodium hypochlorite solution supplemented with 0.001% (v/v) Tween 20 for 15 min. The sterilized seeds were then thoroughly rinsed with sterilized distilled water 3-4 times. They were then germinated and grown for 2 weeks on the N6 media (pH 5.8) containing 1 mg/L 2,4-dichlorophenoxyacetic acid, 3% sucrose, and 0.2% gelite and subject to callus induction. The callus induction and growth was carried out in a controlled environment culture room set at 26° C. and 70% humidity in the dark.
(§1) To examine the effects of plant growth hormones on the callus induction efficiency and the callus morphology, sterilized seeds were placed and cultured on the MS plates supplemented with 4 mg/L thiamine-HCl and 100 mg/L α-ketoglutaric acid. The MS plates, each with a diameter of 9 cm, were further supplemented with various amounts of 2,4-dichlorophenoxyacetic acid (0, 1, 2, 4, 8 mg/L) and 6-benzylaminopurine (0, 0.02, 0.2, 2, 4 mg/L). One hundred seeds were grown per each MS plate, and 3 plates were used for each treatment group. After three months, the number of seeds from which calli had been induced was counted. For the morphological classification of calli, calli were induced and grown on the MS media supplemented with 6-benzylaminopurine and 2,4-dichlorophenoxyacetic acid under the identical condition as described above for three months. They could be morphologically classified into four distinct groups (I-IV), based on the callus morphology, color, and rigidity.
To investigate the effects of plant growth hormones on the callus induction, the mature seed-derived callus induction rates were measured on the MS media supplemented with different amounts of 2,4-dichlorophenoxyacetic acid and 6-benzylaminopurine after grown for three months.
Seeds were plated and grown on the MS media containing 4 mg/L thiamine-HCl, 100 mg/L α-ketoglutaric acid, and different concentration combinations of 2,4-dichlorophenoxyacetic acid and 6-benzylaminopurine for 3 months.

[3] = tested on: callus derived from mature seeds of zoysiagrass; test: Morphology (types I-IV) of callus induced with growth hormone combinations; assay type: cell-based, Zoysia japonica Steud.; conditions: 6-benzylaminopurine 0 mg/L, MS, 3 months
Protocol: as §1
Calli induced on the MS media supplemented with different concentration combinations of 2,4-dichlorophenoxyacetic acid and 6-benzylaminopurine were morphologically and physiologically analysed. Four distinct callus types (types I to IV) could be apparently discriminated by callus color, morphology, and rigidity (FIG. 1).
Seeds were plated on the MS media containing 4 mg/L thiamine-HCl, 100 mg/L α-ketoglutaric acid, and different concentration combinations of 2,4-dichlorophenoxyacetic acid and 6-benzylaminopurine for 3 months. Callus morphologies were rated by; type I: with yellow and differentiated structure, type II: with white, non-friable, and compact structure, type III: with yellow, friable, and compact structure, Type IV: with whitish yellow, friable, soft, and watery appearance. Type I˜III represents the sum of the numbers of types I to III.

[4] = tested on: Type I calli derived from mature seeds of zoysiagrass; test: Effects of cytokinins on shoot induction from callus; assay type: cell-based, Zoysia japonica Steud.; conditions: for Number of shoots over 5 mm / Number of shoots per callus lump: Type I calli, MS with 30 g/L maltose, 2 weeks
Protocol: The media were additionally supplemented with 1 or 4 mg/L of kinetin, 6-benzylaminopurine, or TDZ. Each treatment consisted of 3 MS plates, each with 16 calli.

[5] = tested on: Type I calli derived from mature seeds of zoysiagrass; test: as above; assay type: cell-based, Zoysia japonica Steud.; conditions: 44 Type I calli tested, MS with 30 g/L maltose, 2 weeks
[6] = maltose 15 g/L, MS with 1 mg/L TDZ
[7] = maltose 30 g/L, MS with 1 mg/L TDZ
[8] = maltose 45 g/L, MS with 1 mg/L TDZ
[9] = maltose 60 g/L, MS with 1 mg/L TDZ
[10] = maltose 75 g/L, MS with 1 mg/L TDZ
[11] = maltose 90 g/L, MS with 1 mg/L TDZ
[12] = sugar 30 g/L, MS medium with 1 mg/L TDZ
[13] = 2,4-dichlorophenoxyacetic acid 1 mg/L, 6-benzylaminopurine 0 mg/L
[14] = 2,4-dichlorophenoxyacetic acid 2 mg/L, 6-benzylaminopurine 0 mg/L
[15] = 2,4-dichlorophenoxyacetic acid 4 mg/L, 6-benzylaminopurine 0 mg/L
[16] = 2,4-dichlorophenoxyacetic acid 8 mg/L, 6-benzylaminopurine 0 mg/L
[17] = 2,4-dichlorophenoxyacetic acid 1 mg/L
[18] = 2,4-dichlorophenoxyacetic acid 2 mg/L
[19] = 2,4-dichlorophenoxyacetic acid 4 mg/L
[20] = 2,4-dichlorophenoxyacetic acid 8 mg/L
[21] = 2,4-dichlorophenoxyacetic acid 0 mg/L, 6-benzylaminopurine 0.02 mg/L
[22] = 2,4-dichlorophenoxyacetic acid 0 mg/L, 6-benzylaminopurine 0.2 mg/L
[23] = 2,4-dichlorophenoxyacetic acid 0 mg/L, 6-benzylaminopurine 2 mg/L
[24] = 2,4-dichlorophenoxyacetic acid 0 mg/L, 6-benzylaminopurine 4 mg/L

Question: What does the source list for OC[C@H]1O[C@H](O[C@H]2[C@H](O)[C@@H](O)C(O)O[C@@H]2CO)[C@H](O)[C@@H](O)[C@@H]1O (mixture of isomers) [Maltose, maltose]?
Answer: Colour of leaf and stem margins of regenerated plants [1]: exhibited color caused by accumulation of anthocyanin-related pigments; Physical stress on cultured cells (anthocyanin accumulation in regenerated shoots) [1]: confers a physical stress on the cultured cells; Calli with green shoot (%) [1, 6]: 37.3%; Number of shoots per callus lump [1, 6]: 9.9 ± 0.1; Shoots over 2 mm (%) [1, 6]: 45.2 ± 3.4%; Calli with green shoot (%) [1, 7]: 36.0%; Number of shoots per callus lump [1, 7]: 12.9 ± 1.2; Shoots over 2 mm (%) [1, 7]: 51.4 ± 3.9%; Calli with green shoot (%) [1, 8]: 32.0%; Number of shoots per callus lump [1, 8]: 10.2 ± 1.3; Shoots over 2 mm (%) [1, 8]: 32.1 ± 3.6%; Calli with green shoot (%) [1, 9]: 29.3%; Number of shoots per callus lump [1, 9]: 4.9 ± 0.6; Shoots over 2 mm (%) [1, 9]: 14.5 ± 5.5%; Calli with green shoot (%) [1, 10]: 30.7%; Number of shoots per callus lump [1, 10]: 8.3 ± 0.9; Shoots over 2 mm (%) [1, 10]: 27.3 ± 4.0%; Calli with green shoot (%) [1, 11]: 28.0%; Number of shoots per callus lump [1, 11]: 2.5 ± 0.3; Shoots over 2 mm (%) [1, 11]: 6.7 ± 0.2%; Calli with green shoot (%) [1, 12]: 33.3 ± 2.7%; Number of shoots per callus lump [1, 12]: 9.4 ± 0.3; Shoots over 2 mm (%) [1, 12]: 46.4 ± 5.0%

Question: Which results are given for O=C(O)COc1ccc(Cl)cc1Cl [2,4-dichlorophenoxyacetic acid]?
Answer: Callus producing seeds (%) [2, 13]: 15.5%; Number of callus producing seeds [2, 13]: 47; Callus producing seeds (%) [2, 14]: 10.7%; Number of callus producing seeds [2, 14]: 18; Callus producing seeds (%) [2, 15]: 15.7%; Number of callus producing seeds [2, 15]: 19; Callus producing seeds (%) [2, 16]: 11.1%; Number of callus producing seeds [2, 16]: 38; Fate of induced calli ([2]; MS media with higher than 4 mg/L of the hormone): the calli became brownish as they grew and eventually died; Calli Type I˜III (sum of types I to III) (%) [3, 17]: 8.5%; Calli showing Type I morphology (%) [3, 17]: 4.3%; Calli showing Type II morphology (%) [3, 17]: 0 (0) %; Calli showing Type III morphology (%) [3, 17]: 4.3%; Calli showing Type IV morphology (%) [3, 17]: 91.5%; Number of calli Type I˜III (sum of types I to III) [3, 17]: 4; Number of calli showing Type I morphology [3, 17]: 2; Number of calli showing Type II morphology [3, 17]: 0 (0); Number of calli showing Type III morphology [3, 17]: 2; Number of calli showing Type IV morphology [3, 17]: 43; Calli Type I˜III (sum of types I to III) (%) [3, 18]: 5.6%; Calli showing Type I morphology (%) [3, 18]: 0 (0) %; Calli showing Type II morphology (%) [3, 18]: 0 (0) %; Calli showing Type III morphology (%) [3, 18]: 5.6%; Calli showing Type IV morphology (%) [3, 18]: 94.4%; Number of calli Type I˜III (sum of types I to III) [3, 18]: 1; Number of calli showing Type I morphology [3, 18]: 0 (0); Number of calli showing Type II morphology [3, 18]: 0 (0); Number of calli showing Type III morphology [3, 18]: 1; Number of calli showing Type IV morphology [3, 18]: 17; Calli Type I˜III (sum of types I to III) (%) [3, 19]: 5.3%; Calli showing Type I morphology (%) [3, 19]: 0 (0) %; Calli showing Type II morphology (%) [3, 19]: 0 (0) %; Calli showing Type III morphology (%) [3, 19]: 5.3%; Calli showing Type IV morphology (%) [3, 19]: 94.7%; Number of calli Type I˜III (sum of types I to III) [3, 19]: 1; Number of calli showing Type I morphology [3, 19]: 0 (0); Number of calli showing Type II morphology [3, 19]: 0 (0); Number of calli showing Type III morphology [3, 19]: 1; Number of calli showing Type IV morphology [3, 19]: 18; Calli Type I˜III (sum of types I to III) (%) [3, 20]: 0 (0) %; Calli showing Type I morphology (%) [3, 20]: 0 (0) %; Calli showing Type II morphology (%) [3, 20]: 0 (0) %; Calli showing Type III morphology (%) [3, 20]: 0 (0) %; Calli showing Type IV morphology (%) [3, 20]: 100%; Number of calli Type I˜III (sum of types I to III) [3, 20]: 0 (0); Number of calli showing Type I morphology [3, 20]: 0 (0); Number of calli showing Type II morphology [3, 20]: 0 (0); Number of calli showing Type III morphology [3, 20]: 0 (0); Number of calli showing Type IV morphology [3, 20]: 38

Question: With c1ccc(CNc2ncnc3nc[nH]c23)cc1 [6-benzylaminopurine] as the molecule, how does the “Callus producing seeds (%)” value [2, 21] read?
Answer: 0 (0) %

Question: And the “Number of callus producing seeds” value [2, 21]?
Answer: 0 (0)

Question: What about the “Callus producing seeds (%)” value [2, 22] of the same molecule?
Answer: 0 (0) %

Question: And the “Number of callus producing seeds” value [2, 22]?
Answer: 0 (0)

Question: What about the “Callus producing seeds (%)” value [2, 23] of the same molecule?
Answer: 0 (0) %

Question: What about the “Number of callus producing seeds” value [2, 23] of the same molecule?
Answer: 0 (0)

Question: What about the “Callus producing seeds (%)” value [2, 24] of the same molecule?
Answer: 0 (0) %

Question: What about the “Number of callus producing seeds” value [2, 24] of the same molecule?
Answer: 0 (0)

Question: And the “Number of shoots over 5 mm” value ([4]; growth regulator 1 mg/L)?
Answer: 19

Question: What about the “Number of shoots per callus lump” value ([4]; growth regulator 1 mg/L) of the same molecule?
Answer: 5.2

Question: What about the “Number of shoots over 5 mm” value ([4]; growth regulator 4 mg/L) of the same molecule?
Answer: 1

Question: What about the “Number of shoots per callus lump” value ([4]; growth regulator 4 mg/L) of the same molecule?
Answer: 3.7

Question: What about the “Number of calli with shoots” value ([5]; growth regulator 1 mg/L) of the same molecule?
Answer: 17

Question: And the “Number of calli with shoots” value ([5]; growth regulator 4 mg/L)?
Answer: 9

Question: How did the “Calli with green shoot (%)” value [1, 12] turn out when O=C(CO)[C@@H](O)[C@H](O)[C@H](O)CO [Fructose, fructose] was run?
Answer: 17.3 ± 2.7%

Question: And the “Number of shoots per callus lump” value [1, 12]?
Answer: 4.4 ± 0.8

Question: And the “Shoots over 2 mm (%)” value [1, 12]?
Answer: 12.6 ± 3.0%

Question: O=C[C@H](O)[C@@H](O)[C@@H](O)[C@H](O)CO [Galactose, galactose] was tested. Which “Calli with green shoot (%)” value [1, 12] did it give?
Answer: 0%

Question: And the “Number of shoots per callus lump” value [1, 12]?
Answer: 0

Question: What about the “Shoots over 2 mm (%)” value [1, 12] of the same molecule?
Answer: 0%

Question: What does the source list for c1coc(CNc2ncnc3[nH]cnc23)c1 [Kinetin, kinetin]?
Answer: Number of shoots over 5 mm ([4]; growth regulator 1 mg/L): 0; Number of shoots per callus lump ([4]; growth regulator 1 mg/L): 3.0; Number of shoots over 5 mm ([4]; growth regulator 4 mg/L): 0; Number of shoots per callus lump ([4]; growth regulator 4 mg/L): 1.7; Number of calli with shoots ([5]; growth regulator 1 mg/L): 8; Number of calli with shoots ([5]; growth regulator 4 mg/L): 7

Question: With OC[C@H]1O[C@@](CO)(O[C@H]2O[C@H](CO)[C@@H](O)[C@H](O)[C@H]2O)[C@@H](O)[C@@H]1O [Sucrose, sucrose] as the molecule, how does the “Calli with green shoot (%)” value [1, 12] read?
Answer: 45.3 ± 9.3%

Question: What about the “Number of shoots per callus lump” value [1, 12] of the same molecule?
Answer: 4.5 ± 0.1

Question: What about the “Shoots over 2 mm (%)” value [1, 12] of the same molecule?
Answer: 4.5 ± 0.2%

Question: O=C(Nc1ccccc1)Nc1cnns1 [TDZ, thidiazuron] was tested. Which “Number of shoots over 5 mm” value ([4]; growth regulator 1 mg/L) did it give?
Answer: 14

Question: What about the “Number of shoots per callus lump” value ([4]; growth regulator 1 mg/L) of the same molecule?
Answer: 4.8

Question: And the “Number of shoots over 5 mm” value ([4]; growth regulator 4 mg/L)?
Answer: 1

Question: What about the “Number of shoots per callus lump” value ([4]; growth regulator 4 mg/L) of the same molecule?
Answer: 4.1

Question: And the “Growth of regenerated plants” value ([4]; high concentration of TDZ)?
Answer: severely retarded

Question: What about the “Morphology of regenerated plants” value ([4]; high concentration of TDZ) of the same molecule?
Answer: plants with abnormal morphology were observed at a high frequency

Question: What about the “Plant regeneration and further growth” value ([4]; only the TDZ included) of the same molecule?
Answer: plant regeneration was observed, but the plants did not continue growing

Question: And the “Number of calli with shoots” value ([5]; growth regulator 1 mg/L)?
Answer: 17

Question: And the “Number of calli with shoots” value ([5]; growth regulator 4 mg/L)?
Answer: 10

Source: US6489166B1, “Plant regeneration method for mature seed-derived callus in zoysiagrass” (Korea Kumho Petrochemical Co., Ltd., priority 2001, dated 2002)
